# Test results from patent US7022650B2, “4-trifluoromethylpyrazolyl-substituted pyridines and pyrimidines” (Bayer CropScience GmbH, priority 2002, dated 2006).
# Experiments:
# [1] = system: Agropyrons repens; experiment: Weed plant herbicidal activity, pre-emergence; format: in vivo; settings: 20 g of active substance per hectare, visual scoring after 3 to 4 weeks
# Source text: (§1) 1. Weed plant herbicidal activity and crop plant tolerance, pre-emergence Seeds of monocot and dicot weed plants and of crop plants are placed in sandy loam soil in cardboard pots and are covered with soil. The compounds of the invention, formulated as wettable powders or emulsifiable concentrates, are then applied as an aqueous suspension or emulsion, respectively, in different dosages to the surface of the covering soil at an application rate of 600 to 800 l of water per ha (converted). Following treatment, the pots are placed in a greenhouse and kept under good growth conditions for the weeds. Visual scoring of the plant damage or emergence damage is made after the experimental plants have emerged, after an experimental period of 3 to 4 weeks, in comparison with untreated controls. […] At the same application rate this compound of the invention causes no damage to the crop plants Oryza sativa (rice) or Zea mays (maize).
# [2] = system: Alopecurus myosuroides; experiment: Weed plant herbicidal activity, pre-emergence; format: in vivo; settings: 20 g of active substance per hectare, visual scoring after 3 to 4 weeks
# Source text: as §1
# [3] = system: Amaranthus retroflexus; experiment: Weed plant herbicidal activity, pre-emergence; format: in vivo; settings: 20 g of active substance per hectare, visual scoring after 3 to 4 weeks
# Source text: as §1
# [4] = system: Avena fatua; experiment: Weed plant herbicidal activity, pre-emergence; format: in vivo; settings: 20 g of active substance per hectare, visual scoring after 3 to 4 weeks
# Source text: as §1
# [5] = system: Digitaria sanguinalis; experiment: Weed plant herbicidal activity, pre-emergence; format: in vivo; settings: 20 g of active substance per hectare, visual scoring after 3 to 4 weeks
# Source text: as §1
# [6] = system: Galium aparine; experiment: Weed plant herbicidal activity, pre-emergence; format: in vivo; settings: 20 g of active substance per hectare, visual scoring after 3 to 4 weeks
# Source text: as §1
# [7] = system: Lolium multiflorum; experiment: Weed plant herbicidal activity, pre-emergence; format: in vivo; settings: 20 g of active substance per hectare, visual scoring after 3 to 4 weeks
# Source text: as §1
# [8] = system: Setaria viridis; experiment: Weed plant herbicidal activity, pre-emergence; format: in vivo; settings: 20 g of active substance per hectare, visual scoring after 3 to 4 weeks
# Source text: as §1
# [9] = system: Sorghum halepense; experiment: Weed plant herbicidal activity, pre-emergence; format: in vivo; settings: 20 g of active substance per hectare, visual scoring after 3 to 4 weeks
# Source text: as §1
# [10] = system: Veronica persica; experiment: Weed plant herbicidal activity, pre-emergence; format: in vivo; settings: 20 g of active substance per hectare, visual scoring after 3 to 4 weeks
# Source text: as §1
# [11] = system: Oryza sativa (rice); experiment: Crop plant tolerance, pre-emergence; format: in vivo; settings: 20 g of active substance per hectare, 3 to 4 weeks
# Source text: as §1
# [12] = system: Zea mays (maize); experiment: Crop plant tolerance, pre-emergence; format: in vivo; settings: 20 g of active substance per hectare, 3 to 4 weeks
# Source text: as §1
# [13] = system: Chenopodium album; experiment: Weed plant herbicidal activity, post-emergence; format: in vivo; settings: three-leaf stage, 80 g of active substance per hectare, scored after 3 to 4 weeks
# Method: (§2) 2. Weed plant herbicidal activity and crop plant tolerance, post-emergence Seeds of monocot and dicot weed plants and of crop plants are placed in sandy loam in cardboard pots, covered with soil, and grown under good growth conditions in a greenhouse. Two to three weeks after sowing, the experimental plants are treated at the three-leaf stage. The compounds of the invention, formulated as wettable powders or as emulsifiable concentrates, are sprayed at different dosages onto the surface of the green parts of the plants at an application rate of 600 to 800 l of water per ha (converted). After the experimental plants have stood in the greenhouse for 3 to 4 weeks under optimum growth conditions, the activity of the compounds is scored. […] At the same application rate this compound of the invention causes no damage to the crop plant Oryza sativa (rice) and 20% damage to Triticum aestivum (wheat).
# [14] = system: Digitaria sanguinalis; experiment: Weed plant herbicidal activity, post-emergence; format: in vivo; settings: three-leaf stage, 80 g of active substance per hectare, scored after 3 to 4 weeks
# Method: as §2
# [15] = system: Matricaria inodora; experiment: Weed plant herbicidal activity, post-emergence; format: in vivo; settings: three-leaf stage, 80 g of active substance per hectare, scored after 3 to 4 weeks
# Method: as §2
# [16] = system: Pharbitis purpureum; experiment: Weed plant herbicidal activity, post-emergence; format: in vivo; settings: three-leaf stage, 80 g of active substance per hectare, scored after 3 to 4 weeks
# Method: as §2
# [17] = system: Veronica persica; experiment: Weed plant herbicidal activity, post-emergence; format: in vivo; settings: three-leaf stage, 80 g of active substance per hectare, scored after 3 to 4 weeks
# Method: as §2
# [18] = system: Oryza sativa (rice); experiment: Crop plant tolerance, post-emergence; format: in vivo; settings: 80 g of active substance per hectare, 3 to 4 weeks
# Method: as §2
# [19] = system: Triticum aestivum (wheat); experiment: Crop plant tolerance, post-emergence; format: in vivo; settings: 80 g of active substance per hectare, 3 to 4 weeks
# Method: as §2
Compound,melting point [°C],activity against Agropyrons repens [1],activity against Alopecurus myosuroides [2],activity against Amaranthus retroflexus [3],activity against Avena fatua [4],activity against Digitaria sanguinalis [5],activity against Galium aparine [6],activity against Lolium multiflorum [7],activity against Setaria viridis [8],activity against Sorghum halepense [9],activity against Veronica persica [10],damage to the crop plant Oryza sativa (rice) [11],damage to the crop plant Zea mays (maize) [12],activity against Chenopodium album [13],activity against Digitaria sanguinalis [14],activity against Matricaria inodora [15],activity against Pharbitis purpureum [16],activity against Veronica persica [17],damage to the crop plant Oryza sativa (rice) [18],damage to Triticum aestivum (wheat) [19] [%]
"Cc1cnc(-n2cc(C(F)(F)F)cn2)nc1Oc1csc(C(F)(F)F)c1 [1.8, 5-methyl-2-(4-trifluoromethyl-1H-1-pyrazolyl)-4-(5-trifluoromethyl-3-thienyloxy)pyrimidine]",94 to 96,,,,,,,,,,,,,,,,,,,
"COc1cnc(-n2cc(C(F)(F)F)cn2)nc1Oc1csc(C(F)(F)F)c1 [Example No. 1.22, 5-methoxy-2-(4-trifluoromethyl-1H-1-pyrazolyl)-4-(5-trifluoromethyl-3-thienyloxy)pyrimidine]",109 to 111,at least 80%,at least 80%,at least 80%,at least 80%,at least 80%,at least 80%,at least 80%,at least 80%,at least 80%,at least 80%,no damage,no damage,at least 90%,at least 90%,at least 90%,at least 90%,at least 90%,no damage,20
